Among the data in patent US7786134B2, “Lipophilic anticancer drug compounds, compositions and related methods” (Sonus Pharmaceuticals, Inc., priority 2005, dated 2010) are GI50 values, retold here.

Assay [1] has as its system H460 (non-small cell lung). In words: In vitro cytotoxicity (GI50), Sulforhodamine B staining, H460. The class given is cell-based. The conditions noted are these: H460 cells, 48 hours contact, read-out: Concentration that produce 50% cell growth inhibition (GI50) H460 (NSCLC). Here is the method: (§1) The study was performed using a solution of the lipophilic anticancer drug compounds in DMSO (1 mM) diluted in the corresponding cell media. The cells were in contact with varying concentrations of the test article for a period of 48 hours. At the end of 48 hours, staining with Sulforhodamine B was performed to determine the number of viable cells and calculate the degree of cellular growth inhibition as compared to a control group.

The subject of assay [2] is HCT-116 (COLON). Description: In vitro cytotoxicity (GI50), Sulforhodamine B staining, HCT-116. As to conditions: HCT-116 cells, 48 hours contact, read-out: Concentration that produce 50% cell growth inhibition (GI50) HCT-116 (COLON). The class given is cell-based. On the procedure:
as §1

Assay [3] has as its system HCT-15 (colorectal). Description: In vitro cytotoxicity (GI50), Sulforhodamine B staining, HCT-15. The conditions noted are these: HCT-15 cells, 48 hours contact, read-out: Concentration that produce 50% cell growth inhibition (GI50) HCT-15 (COLON). Type of assay: cell-based. Here is the method: as §1
In assay [4] the test system is SKOV-3 (ovarian). In words: In vitro cytotoxicity (GI50), Sulforhodamine B staining, SKOV-3. The class given is cell-based. As to conditions: SKOV-3 cells, 48 hours contact, read-out: Concentration that produce 50% cell growth inhibition (GI50) SKOV-3 (OVARIAN). Here is the method:
as §1

Assay [5] relates to SKOV-3 (ovarian). As to conditions: SKOV-3 cells, National Cancer Institute (NCI) GI50 values; read-out: Concentration that produce 50% cell growth inhibition (GI50) SKOV-3 (OVARIAN); cited from earlier work.
In assay [6] the test system is HCT-15 (colorectal). As to conditions: HCT-15 cells, National Cancer Institute (NCI) GI50 values; read-out: Concentration that produce 50% cell growth inhibition (GI50) HCT-15 (COLON); cited from earlier work.
Assay [7] concerns HCT-116 (COLON). As to conditions: HCT-116 cells, National Cancer Institute (NCI) GI50 values; read-out: Concentration that produce 50% cell growth inhibition (GI50) HCT-116 (COLON); cited from earlier work.
Assay [8] deals with H460 (non-small cell lung). As to conditions: H460 cells, National Cancer Institute (NCI) GI50 values; read-out: Concentration that produce 50% cell growth inhibition (GI50) H460 (NSCLC); cited from earlier work.

Where two headings read alike, the source gives them in different places.

On to “10-(N-n-butyl carbamate)-7-ethylcamptothecin”, for which the GI50 in assay [1] is 1.2 nM; in the assay on HCT-116 (COLON) [2], 1.1 nM; in the assay on HCT-15 (colorectal) [3] it was 44.7 nM; with SKOV-3 (ovarian) [4], 0.398 nM.
Take “10-(n-butyl carbonoyloxy)-7-ethylcamptothecin”: the GI50 in assay [1] amounted to 2.95 nM; in the assay with HCT-116 (COLON) [2] it was 0.58 nM; with HCT-15 (colorectal) [3], 120 nM; with SKOV-3 (ovarian) [4], 0.275 nM.
As to `CCc1c2c(nc3ccc(O)cc13)-c1cc3c(c(=O)n1C2)COC(=O)[C@]3(O)CC` [7-ethyl-10hydroxycamptothecin, 7-ethyl-10-hydroxycamptothecin], the GI50 with SKOV-3 (ovarian) [5] was 1 nM; in the assay with HCT-15 (colorectal) [6], 7.9 nM; with HCT-116 (COLON) [7], 21 nM; in assay [8] it was 1.4 nM.
With `CCCCCCCCOC(=O)CCC(=O)Oc1ccc2nc3c(c(CC)c2c1)Cn1c-3cc2c(c1=O)COC(=O)C2(O)CC` (centres unmarked) [10-(1-octyl succinate)-7-ethylcamptothecin], the GI50 in assay [1] worked out at 2460 nM; with HCT-116 (COLON) [2], 9.75 nM; in the assay with HCT-15 (colorectal) [3], 661 nM; with SKOV-3 (ovarian) [4], 3.46 nM.
In the same order, the values of `CCc1c2c(nc3ccc(OC(=O)CCC(=O)OCc4c(C)c(C)c(C)c(C)c4C)cc13)-c1cc3c(c(=O)n1C2)COC(=O)C3(O)CC` (centres unmarked) [10-(2,3,4,5,6-pentamethylbenzyl succinate)-7-ethylcamptothecin] are 3.82 nM, 3.09 nM, 32.4 nM and 2.13 nM.
In the same order, the values of `CCc1c2c(nc3ccc(OC(=O)CCC(=O)OCc4c(C)cc(C)cc4C)cc13)-c1cc3c(c(=O)n1C2)COC(=O)C3(O)CC` (centres unmarked) [10-(2,4,6-trimethylbenzyl succinate)-7-ethylcamptothecin] are 5.12 nM, 3.54 nM, 31.6 nM and 3.67 nM.
Regarding `CCCCOc1ccc(C(=O)Oc2ccc3nc4c(c(CC)c3c2)Cn2c-4cc3c(c2=O)COC(=O)C3(O)CC)cc1` (centres unmarked) [10-(4-butoxybenzoyloxy)-7-ethylcamptothecin], the GI50 in assay [1] was determined as 28.2 nM; with HCT-116 (COLON) [2], 5.62 nM; with HCT-15 (colorectal) [3], 141 nM; in the assay with SKOV-3 (ovarian) [4], 5.5 nM.
In the same order, the values of `CCc1c2c(nc3ccc(OC(=O)CCC(=O)OCc4ccc(C)cc4)cc13)-c1cc3c(c(=O)n1C2)COC(=O)C3(O)CC` (centres unmarked) [10-(4-methylbenzyl succinate)-7-ethylcamptothecin] are 5.37 nM, 2.29 nM, 75.4 nM and 6.16 nM.
Take `CCc1c2c(nc3ccc(OC(=O)NC(C)(C)C)cc13)-c1cc3c(c(=O)n1C2)COC(=O)C3(O)CC` (centres unmarked) [10-(N-t-butyl carbamate)-7-ethylcamptothecin]: the GI50 in assay [1] was 5.75 nM; with HCT-116 (COLON) [2] it was 15.1 nM; in the assay with HCT-15 (colorectal) [3] it was 158 nM; in the assay on SKOV-3 (ovarian) [4], 1.29 nM.
In the same order, the values of `CCc1c2c(nc3ccc(OC(=O)CC4(CC(=O)OCc5ccccc5)CCCC4)cc13)-c1cc3c(c(=O)n1C2)COC(=O)[C@]3(O)CC` [10-(benzyl 3,3-tetramethyleneglutarate)-7-ethylcamptothecin] are 8.91 nM, 3.49 nM, 85.1 nM and 2.95 nM.
In the same order, the values of `CCc1c2c(nc3ccc(OC(=O)CCC(=O)OCc4ccccc4)cc13)-c1cc3c(c(=O)n1C2)COC(=O)C3(O)CC` (centres unmarked) [10-(benzyl succinate)-7-ethylcamptothecin] are 0.372 nM, 10.7 nM, 50.1 nM and 1.29 nM.
In the same order, the values of `CCc1c2c(nc3ccc(OCc4ccccc4)cc13)-c1cc3c(c(=O)n1C2)COC(=O)[C@]3(O)CC` [10-benzyloxy-7-ethylcamptothecin] are 0.32 nM, 4.52 nM, 5.66 nM and 15 nM.
On to `CC[C@@]1(O)C(=O)OCc2c1cc1n(c2=O)Cc2cc3cc(O)ccc3nc2-1` [10-hydroxycamptothecin], for which the figures for the GI50 (in the assay on HCT-15 (colorectal) [6]; with HCT-116 (COLON) [7]; in assay [8]) were 356 nM, 27 nM and 11 nM, respectively.
As for `CCCCCCCCOC(=O)CCC(=O)OC1(CC)C(=O)OCc2c1cc1n(c2=O)Cc2cc3ccccc3nc2-1` (centres unmarked) [20-(1-octyl succinate)camptothecin], the GI50 in assay [1] was found to be 165 nM; with HCT-116 (COLON) [2], 766 nM; with HCT-15 (colorectal) [3] it was 354 nM; in the assay on SKOV-3 (ovarian) [4], 2420 nM.
In the same order, the values of `CCC1(OC(=O)CCC(=O)OCc2ccccc2)C(=O)OCc2c1cc1n(c2=O)Cc2cc3ccccc3nc2-1` (centres unmarked) [20-(benzyl succinate)camptothecin] are 380 nM, 630 nM, 1300 nM and 562 nM.
For `CC[C@@]1(O)C(=O)OCc2c1cc1n(c2=O)Cc2cc3ccccc3nc2-1` [Camptothecin], the GI50 was 25 nM in the assay with SKOV-3 (ovarian) [5], 160 nM with HCT-15 (colorectal) [6], 40 nM with HCT-116 (COLON) [7] and 16 nM in assay [8].
Regarding `CCc1c2c(nc3ccc(OC(=O)N4CCC(N5CCCCC5)CC4)cc13)-c1cc3c(c(=O)n1C2)COC(=O)[C@]3(O)CC` [Irrinotecan, irinotecan], the GI50 in the assay with HCT-116 (COLON) [7] is 7900 nM; in assay [8], 5100 nM.
For `CC[C@@]1(O)C(=O)OCc2c1cc1n(c2=O)Cc2cc3c(CN(C)C)c(O)ccc3nc2-1` [Topotecan, topotecan], the GI50 was 501 nM with HCT-15 (colorectal) [6], 39.8 nM in the assay on HCT-116 (COLON) [7] and 19.9 nM in assay [8].
